Converted amounts (≈) assume the structure as drawn.
System: M. catarrhalis A894
Experiment: MIC determination by microdilution in cation-adjusted Mueller-Hinton Broth (NCCLS)
Format: cell-based
Details: Moraxella catarrhalis, A894, microdilution method, pH of the test medium 7.2-7.3
Procedure: These assays have been performed following the description given in “Methods for dilution Antimicrobial Susceptibility Tests for Bacteria that Grow Aerobically, 4th ed.; Approved standard: NCCLS Document M7-A4; National Committee for Clinical Laboratory Standards: Villanova, Pa., USA, 1997”. Minimal inhibitory concentrations (MICs; mg/l) were determined in cation-adjusted Mueller-Hinton Broth by a microdilution method following NCCLS guidelines (National Committee for Clinical Laboratory Standards. Methods for Dilution Antimicrobial Susceptibility). The pH of the test medium was 7.2-7.3. All Example compounds were tested against several Gram positive and Gram negative bacteria such as S. aureus, E. faecalis, S. pneumoniae, M. catarrhalis or E.coli.

Q: For COc1ccc2ncc3c(c2n1)C(CN1CCC[C@@H](CNCc2cc4c(nn2)OCCO4)C1)CO3 (mixture of isomers) [Example 39, (6,7-dihydro-[1,4]dioxino[2,3-c]pyridazin-3-ylmethyl)-[(3S)-1-((1RS)-8-methoxy-1,2-dihydro-3-oxa-5,9-diaza-cyclopenta[a]naphthalen-1-ylmethyl)-piperidin-3-ylmethyl]-amine], which MIC is on record?
A: ≤ 0.031 µg/mL

Q: With COc1ccc2ncc3c(c2n1)C(CN1CCC(NCc2cc4c(cn2)OCCO4)CC1)CO3 (racemic) [Example 9, rac-(2,3-dihydro-[1,4]dioxino[2,3-c]pyridin-7-ylmethyl)-[1-(8-methoxy-1,2-dihydro-3-oxa-5,9-diaza-cyclopenta[a]naphthalen-1-ylmethyl)-piperidin-4-yl]-amine] as the compound, how does the MIC read?
A: ≤ 0.031 µg/mL

Q: Which MIC does the source give for COc1ccc2ncc3c(c2n1)C(CN1CC[C@@H](CNCc2ccc4c(n2)NC(=O)CS4)C1)CO3 (mixture of isomers) [Example 14, 6-({[(3S)-1-((1RS)-8-methoxy-1,2-dihydro-3-oxa-5,9-diaza-cyclopenta[a]naphthalen-1-ylmethyl)-pyrrolidin-3-ylmethyl]-amino}-methyl)-4H-pyrido[3,2-b][1,4]thiazin-3-one] here?
A: ≤ 0.031 µg/mL

Q: How did the MIC turn out when COc1ccc2ncc3c(c2n1)C(CN1CCO[C@@H](CNCc2ccc4c(n2)NC(=O)CS4)C1)CO3 (mixture of isomers) [Example 25, 6-({[(2S)-4-((1RS)-8-methoxy-1,2-dihydro-3-oxa-5,9-diaza-cyclopenta[a]naphthalen-1-ylmethyl)-morpholin-2-ylmethyl]-amino}-methyl)-4H-pyrido[3,2-b][1,4]thiazin-3-one] was run?
A: ≤ 0.031 µg/mL

Q: With COc1ccc2ncc3c(c2n1)C(CN1CCC[C@@H](CNCc2ccc4c(c2)NC(=O)CO4)C1)CO3 (mixture of isomers) [Example 31, 6-({[(3S)-1-((1RS)-8-methoxy-1,2-dihydro-3-oxa-5,9-diaza-cyclopenta[a]naphthalen-1-ylmethyl)-piperidin-3-ylmethyl]-amino}-methyl)-4H-benzo[1,4]oxazin-3-one] as the compound, how does the MIC read?
A: ≤ 0.031 µg/mL

Q: For COc1ccc2ncc3c(c2n1)[C@@H](CN1CCC(NCc2cc4c(cn2)OCCO4)C(CO)C1)CO3 (stereo partly drawn) [Example 40, [4-[(2,3-dihydro-[1,4]dioxino[2,3-c]pyridin-7-ylmethyl)-amino]-1-((S)-8-methoxy-1,2-dihydro-3-oxa-5,9-diaza-cyclopenta[a]naphthalen-1-ylmethyl)-piperidin-3-yl]-methanol], which MIC is on record?
A: ≤ 0.031 µg/mL

Q: For COc1ccc2ccc3c(c2n1)C(CN1CCC(NCc2ccc4c(n2)OCCO4)CC1)CO3 (racemic) [Example 11, rac-(2,3-dihydro-[1,4]dioxino[2,3-b]pyridin-6-ylmethyl)-[1-(2-methoxy-8,9-dihydro-furo[2,3-h]quinolin-9-ylmethyl)-piperidin-4-yl]-amine], which MIC is on record?
A: 0.125 µg/mL (≈ 0.27 µM)

Q: Which MIC does the source give for COc1ccc2ncc3c(c2n1)C(CN1CCC(NCc2ccc4c(n2)NC(=O)CS4)CC1)CO3 (racemic) [Example 7, rac-6-{[1-(8-methoxy-1,2-dihydro-3-oxa-5,9-diaza-cyclopenta[a]naphthalen-1-ylmethyl)-piperidin-4-ylamino]-methyl}-4H-pyrido[3,2-b][1,4]thiazin-3-one] here?
A: ≤ 0.031 µg/mL

Q: COc1ccc2ncc3c(c2n1)C(CN1CC[C@H](NCc2ccc4c(n2)NC(=O)CS4)[C@H](CO)C1)CO3 (relative stereo) [Example 36, 6-{(3R*,4S*)-[3-hydroxymethyl-1-((1RS)-8-methoxy-1,2-dihydro-3-oxa-5,9-diaza-cyclopenta[a]naphthalen-1-ylmethyl)-piperidin-4-ylamino]-methyl}-4H-pyrido[3,2-b][1,4]thiazin-3-one] was tested. Which MIC did it give?
A: ≤ 0.031 µg/mL

Q: With COc1ccc2ncc3c(c2n1)C(CN1CC[C@@H](CNC/C=C/c2cc(F)ccc2F)C1)CO3 (mixture of isomers) [Example 13, [(E)-3-(2,5-difluoro-phenyl)-allyl]-[(3S)-1-((1RS)-8-methoxy-1,2-dihydro-3-oxa-5,9-diaza-cyclopenta[a]naphthalen-1-ylmethyl)-pyrrolidin-3-ylmethyl]-amine] as the compound, how does the MIC read?
A: ≤ 0.031 µg/mL

Q: For COc1ccc2ncc3c(c2n1)[C@@H](CN1CCC(NCc2ccc4c(n2)NC(=O)CS4)CC1)CO3 (single isomer, unassigned) [Example 16B], which MIC is on record?
A: ≤ 0.031 µg/mL

Q: For COc1ccc2ncc3c(c2n1)C(CN1CC[C@@H](NCc2cc4c(cn2)OCCO4)[C@@H](F)C1)CO3 (relative stereo) [Example 19, (2,3-dihydro-[1,4]dioxino[2,3-c]pyridin-7-ylmethyl)-[(3S*,4R*)-3-fluoro-1-((1RS)-8-methoxy-1,2-dihydro-3-oxa-5,9-diaza-cyclopenta[a]naphthalen-1-ylmethyl) -piperidin-4-yl]-amine], which MIC is on record?
A: ≤ 0.031 µg/mL

Same assay, conditions: microdilution method, pH of the test medium 7.2-7.3

Q: COc1ccc2ncc3c(c2n1)C(CN1C2CCC1CC(NCc1ccc4c(n1)NC(=O)CO4)C2)CO3 (racemic) [Example 22, 6-{[(3-exo)-8-((1RS)-8-methoxy-1,2-dihydro-3-oxa-5,9-diaza-cyclopenta[a]naphthalen-1-ylmethyl)-8-aza-bicyclo[3.2.1]oct-3-ylamino]-methyl}-4H-pyrido[3,2-b][1,4]oxazin-3-one] was tested. Which “MIC M. catarrhalis A894” value did it give?
A: ≦0.031 mg/l

Q: COc1ccc2ncc3c(c2n1)C(CN1[C@@H]2CC[C@H]1C[C@H](NCc1cc4c(cn1)OCCO4)C2)CO3 (mixture of isomers) [Example 20, (2,3-dihydro-[1,4]dioxino[2,3-c]pyridin-7-ylmethyl) -[(3-exo)-8-((1RS)-8-methoxy-1,2-dihydro-3-oxa-5,9-diaza-cyclopenta[a]naphthalen-1-ylmethyl)-8-aza-bicyclo[3.2.1]oct-3-yl]-amine] was tested. Which “MIC M. catarrhalis A894” value did it give?
A: ≦0.031 mg/l

Source: patent US8012961B2, “Tricyclic antibiotics” (Actelion Pharmaceutical Ltd., priority 2008, dated 2011)
